Measurements taken from ChEMBL document CHEMBL1201862, “PubChem BioAssay data set” (2004).
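Results reflect a 48-hour exposure of cells in 96-well plates to compound at five concentrations. GI50 = concentration required for 50% inhibition of growth.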 Activity calls are given as the source filed them. No stated cut-off is given here; in the data, active = GI50 up to about 1.1 µM and inactive = higher.

How the values were obtained:
Experiment in all cases: NCI tumour cell line growth inhibition, 48 h
SF-295 = system: SF-295
MOLT-4 = system: MOLT-4
M14 = system: M14
KM12 = system: KM12
M19-MEL = system: M19-MEL
DMS-273 = system: DMS-273
OVCAR-4 = system: OVCAR-4
SF-539 = system: SF-539
HCT-116 = system: HCT-116
DMS-114 = system: DMS-114
OVCAR-3 = system: OVCAR-3
Malme-3M = system: Malme-3M
RXF 393 = system: RXF 393
NCI-H522 = system: NCI-H522
DLD-1 = system: DLD-1
XF498 = system: XF498
UACC-62 = system: UACC-62
SK-MEL-5 = system: SK-MEL-5
CCRF-CEM = system: CCRF-CEM
SNB-75 = system: SNB-75
SK-OV-3 = system: SK-OV-3
SK-MEL-2 = system: SK-MEL-2
COLO 205 = system: COLO 205
NCI-H23 = system: NCI-H23
HOP-62 = system: HOP-62
CAKI-1 = system: CAKI-1
LXFL 529 = system: LXFL 529
OVCAR-8 = system: OVCAR-8
U-251 = system: U-251
ACHN = system: ACHN
SW-620 = system: SW-620
UO-31 = system: UO-31
SNB-78 = system: SNB-78
EKVX = system: EKVX
HOP-18 = system: HOP-18
A498 = system: A498
NCI-H460 = system: NCI-H460
SF-268 = system: SF-268
HCC 2998 = system: HCC 2998
NCI-H226 = system: NCI-H226
HCT-15 = system: HCT-15
UACC-257 = system: UACC-257
TK-10 = system: TK-10
SN12C = system: SN12C
SNB-19 = system: SNB-19
KM-20L2 = system: KM-20L2
SR = system: SR
786-0 = system: 786-0
IGROV-1 = system: IGROV-1
HT-29 = system: HT-29
HOP-92 = system: HOP-92
HL-60 = system: HL-60
SK-MEL-28 = system: SK-MEL-28
A549 = system: A549
LOX IMVI = system: LOX IMVI
OVCAR-5 = system: OVCAR-5
K562 = system: K562
RPMI-8226 = system: RPMI-8226

**Q.** Which GI50 (SF-295) does the source give for `Cc1cc(Cl)ccc1N1C(=O)C(=O)C(c2nc3ccccc3o2)C(=O)C1=O` here?
**A.** The GI50 was > 100 µM (inactive).

**Q.** What about the GI50 (MOLT-4) of the same compound?
**A.** Its GI50 is 30.4 µM (inactive).

**Q.** What about the GI50 (M14) of the same compound?
**A.** The GI50 was 67 µM (inactive).

**Q.** And the GI50 (KM12)?
**A.** Its GI50 is > 100 µM (inactive).

**Q.** What about the GI50 (M19-MEL) of the same compound?
**A.** Its GI50 is > 100 µM (inactive).

**Q.** What about the GI50 (DMS-273) of the same compound?
**A.** Its GI50 is > 100 µM (inactive).

**Q.** And the GI50 (OVCAR-4)?
**A.** The GI50 was > 100 µM (inactive).

**Q.** And the GI50 (SF-539)?
**A.** Its GI50 is > 100 µM (inactive).

**Q.** What about the GI50 (HCT-116) of the same compound?
**A.** The GI50 was 46.5 µM (inactive).

**Q.** And the GI50 (DMS-114)?
**A.** Its GI50 is 68.9 µM (inactive).

**Q.** And the GI50 (OVCAR-3)?
**A.** The GI50 was 61.1 µM (inactive).

**Q.** And the GI50 (Malme-3M)?
**A.** Its GI50 is > 100 µM (inactive).

**Q.** What about the GI50 (RXF 393) of the same compound?
**A.** The GI50 was > 100 µM (inactive).

**Q.** And the GI50 (NCI-H522)?
**A.** Its GI50 is > 100 µM (inactive).

**Q.** What about the GI50 (DLD-1) of the same compound?
**A.** Its GI50 is 32.9 µM (inactive).

**Q.** And the GI50 (XF498)?
**A.** The GI50 was > 100 µM (inactive).

**Q.** What about the GI50 (UACC-62) of the same compound?
**A.** The GI50 was 65 µM (inactive).

**Q.** And the GI50 (SK-MEL-5)?
**A.** Its GI50 is > 100 µM (inactive).

**Q.** What about the GI50 (CCRF-CEM) of the same compound?
**A.** The GI50 was 23.7 µM (inactive).

**Q.** What about the GI50 (SNB-75) of the same compound?
**A.** Its GI50 is 63.4 µM (inactive).

**Q.** And the GI50 (SK-OV-3)?
**A.** The GI50 was > 100 µM (inactive).

**Q.** What about the GI50 (SK-MEL-2) of the same compound?
**A.** The GI50 was > 100 µM (inactive).

**Q.** What about the GI50 (COLO 205) of the same compound?
**A.** The GI50 was 31.1 µM (inactive).

**Q.** And the GI50 (NCI-H23)?
**A.** Its GI50 is > 100 µM (inactive).

**Q.** What about the GI50 (HOP-62) of the same compound?
**A.** Its GI50 is > 100 µM (inactive).

**Q.** What about the GI50 (CAKI-1) of the same compound?
**A.** Its GI50 is > 100 µM (inactive).

**Q.** What about the GI50 (LXFL 529) of the same compound?
**A.** Its GI50 is 71.3 µM (inactive).

**Q.** What about the GI50 (OVCAR-8) of the same compound?
**A.** The GI50 was > 100 µM (inactive).

**Q.** What about the GI50 (U-251) of the same compound?
**A.** The GI50 was > 100 µM (inactive).

**Q.** What about the GI50 (ACHN) of the same compound?
**A.** Its GI50 is > 100 µM (inactive).

**Q.** What about the GI50 (SW-620) of the same compound?
**A.** Its GI50 is 43.7 µM (inactive).

**Q.** And the GI50 (UO-31)?
**A.** The GI50 was > 100 µM (inactive).

**Q.** And the GI50 (SNB-78)?
**A.** Its GI50 is > 100 µM (inactive).

**Q.** What about the GI50 (EKVX) of the same compound?
**A.** The GI50 was > 100 µM (inactive).

**Q.** And the GI50 (HOP-18)?
**A.** The GI50 was > 100 µM (inactive).

**Q.** And the GI50 (A498)?
**A.** The GI50 was > 100 µM (inactive).

**Q.** What about the GI50 (NCI-H460) of the same compound?
**A.** The GI50 was > 100 µM (inactive).

**Q.** And the GI50 (SF-268)?
**A.** The GI50 was > 100 µM (inactive).

**Q.** What about the GI50 (HCC 2998) of the same compound?
**A.** The GI50 was > 100 µM (inactive).

**Q.** And the GI50 (NCI-H226)?
**A.** Its GI50 is > 100 µM (inactive).

**Q.** What about the GI50 (HCT-15) of the same compound?
**A.** Its GI50 is greater than 100 µM.

**Q.** And the GI50 (UACC-257)?
**A.** The GI50 was 71 µM (inactive).

**Q.** What about the GI50 (TK-10) of the same compound?
**A.** Its GI50 is > 100 µM (inactive).

**Q.** What about the GI50 (SN12C) of the same compound?
**A.** The GI50 was > 100 µM (inactive).

**Q.** What about the GI50 (SNB-19) of the same compound?
**A.** Its GI50 is > 100 µM (inactive).

**Q.** And the GI50 (KM-20L2)?
**A.** Its GI50 is > 100 µM (inactive).

**Q.** And the GI50 (SR)?
**A.** Its GI50 is 34 µM (inactive).

**Q.** And the GI50 (786-0)?
**A.** Its GI50 is > 100 µM (inactive).

**Q.** And the GI50 (IGROV-1)?
**A.** The GI50 was 35.6 µM (inactive).

**Q.** And the GI50 (HT-29)?
**A.** Its GI50 is 65.8 µM (inactive).

**Q.** And the GI50 (HOP-92)?
**A.** Its GI50 is 58.7 µM (inactive).

**Q.** And the GI50 (HL-60)?
**A.** The GI50 was 33.2 µM (inactive).

**Q.** And the GI50 (SK-MEL-28)?
**A.** The GI50 was 96.4 µM (inactive).

**Q.** What about the GI50 (A549) of the same compound?
**A.** The GI50 was > 100 µM (inactive).

**Q.** Which results are given for `O=C1NC(Cc2ccccc2)C(=O)N2CCCC12` (stereo unspecified)?
**A.** GI50 (LOX IMVI): > 100 µM (inactive); GI50 (SF-295): > 100 µM (inactive); GI50 (MOLT-4): > 100 µM (inactive); GI50 (M14): > 100 µM (inactive); GI50 (KM12): > 100 µM (inactive); GI50 (M19-MEL): > 100 µM (inactive); GI50 (DMS-273): > 100 µM (inactive); GI50 (OVCAR-4): > 100 µM (inactive); GI50 (SF-539): > 100 µM (inactive); GI50 (HCT-116): > 100 µM (inactive); GI50 (DMS-114): > 100 µM (inactive); GI50 (OVCAR-3): > 100 µM (inactive); GI50 (Malme-3M): > 100 µM (inactive); GI50 (RXF 393): > 100 µM (inactive); GI50 (NCI-H522): > 100 µM (inactive); GI50 (DLD-1): > 100 µM (inactive); GI50 (XF498): > 100 µM (inactive); GI50 (UACC-62): > 100 µM (inactive); GI50 (SK-MEL-5): > 100 µM (inactive); GI50 (OVCAR-5): > 100 µM (inactive); GI50 (CCRF-CEM): > 100 µM (inactive); GI50 (SNB-75): > 100 µM (inactive); GI50 (SK-OV-3): > 100 µM (inactive); GI50 (SK-MEL-2): > 100 µM (inactive); GI50 (COLO 205): > 100 µM (inactive); GI50 (K562): > 100 µM (inactive); GI50 (HOP-62): > 100 µM (inactive); GI50 (CAKI-1): > 100 µM (inactive); GI50 (LXFL 529): > 100 µM (inactive); GI50 (OVCAR-8): > 100 µM (inactive); GI50 (U-251): > 100 µM (inactive); GI50 (ACHN): > 100 µM (inactive); GI50 (SW-620): > 100 µM (inactive); GI50 (UO-31): > 100 µM (inactive); GI50 (SNB-78): > 100 µM (inactive); GI50 (EKVX): > 100 µM (inactive); GI50 (HOP-18): > 100 µM (inactive); GI50 (A498): > 100 µM (inactive); GI50 (NCI-H460): > 100 µM (inactive); GI50 (SF-268): > 100 µM (inactive); GI50 (HCC 2998): > 100 µM (inactive); GI50 (NCI-H226): > 100 µM (inactive); GI50 (HCT-15): > 100 µM; GI50 (UACC-257): > 100 µM (inactive); GI50 (TK-10): > 100 µM (inactive); GI50 (SN12C): > 100 µM (inactive); GI50 (SNB-19): > 100 µM (inactive); GI50 (KM-20L2): > 100 µM (inactive); GI50 (SR): > 100 µM (inactive); GI50 (786-0): > 100 µM (inactive); GI50 (RPMI-8226): > 100 µM (inactive); GI50 (IGROV-1): > 100 µM (inactive); GI50 (HT-29): > 100 µM (inactive); GI50 (HOP-92): > 100 µM (inactive); GI50 (HL-60): > 100 µM (inactive); GI50 (SK-MEL-28): > 100 µM (inactive); GI50 (A549): > 100 µM (inactive)
